Legend:
Assay type in all cases: cell-based
[1] = tested on: KRAS mutant lung and colorectal cancer cells (H358, H2122, DLD1, HCT 116); test: Colony formation matrix (Assay Method A)
Protocol: (§1) • KRAS mutant lung and colorectal cancer cells: • Lung: H358 (G12C) (ATCC No: CRL-5807) • H2122 (G12C) (ATCC No: CRL-5985) • Colon:DLD1 (G13D) (ATCC No: CCL-221) • HCT 116 (G13D) (ATCC No: CCL-247)
(§2) All cell lines were cultured in RPMI 1640 medium (Gibco) supplemented with 10% fetal bovine serum, 1% glutamine and penicillin-streptomycin (Gibco) at 37° C. and 5% CO2. Mycoplasma contamination was excluded via a PCR-based method.
(§3) Cell lines were cultured and seeded into 24-well plates. After 24 h incubation, drugs were added using the HP D300 Digital Dispenser. Medium and drugs were refreshed twice a week for 10-14 days. After this, cells were fixed with 4% formaldehyde in PBS and stained with 0.1% crystal violet in water. The quantification of the colony formation matrixes (crystal violet staining per well) was assessed using ImageJ software.
According to Assay Method A cells (H358, H2122, DLD1, HCT 116) were treated with compound (A), Trametinib or their combination at the indicated concentrations (cf. FIG. 1). Drugs were refreshed twice a week. The cells were fixed and stained after 10 days.
According to Assay Method A cells (H358, DLD1, HCT 116) were treated with compound (A), SCH772984 or their combination at the indicated concentrations (cf. FIG. 2). Drugs were refreshed twice a week. The cells were fixed and stained after 10 days.

[2] = tested on: KRASG12C mutant lung cancer cells (H358, H2122); test: Colony formation matrix (Assay Method A), Example 3; settings: 10 days, FIG. 3
Protocol: as §1, §2, §3
According to Assay Method A cells (H358, H2122) were treated with compound (A), AMG510 or their combination at the indicated concentrations (cf. FIG. 3). Drugs were refreshed twice a week. The cells were fixed and stained after 10 days.

[3] = tested on: KRAS G12C mutant cancer cell line H358; test: Colony formation matrix (Assay Method A), Example 4; settings: compound (A) combined with RMC4550, 10 days, FIG. 4
Protocol: as §1, §2, §3
According to Assay Method A H358 cells were treated with compound (A), RMC4550 or their combination at the indicated concentrations (cf. FIG. 4). Drugs were refreshed twice a week. The cells were fixed and stained after 10 days.

[4] = tested on: Lung Cancer Cells; test: IncuCyte proliferation assay (Assay Method C), confluence
Protocol: as §2
Drugs were refreshed twice a week.

[5] = tested on: Lung Cancer Cells; test: IncuCyte Caspase 3/7 apoptosis assay (Assay Method C); settings: compound (A) in combination with Trametinib, RMC4550 or AMG510; first 72 hours; FIG. 5B
Protocol: as §2
For IncuCyte proliferation assays and Caspase 3/7 assays, cells were seeded in 96-well plates. After 24 h incubation, drugs and the IncuCyte® Caspase-3/7 green apoptosis assays reagent (Essen Bioscience 4440) were added using the HP D300 Digital Dispenser and the plates were placed in the IncuCyte®. Culture media and drugs were refreshed twice a week for 10 days. Cells were imaged every 4 hours in the IncuCyte ZOOM (Essen Bioscience). Phase-contrast images were collected and analyzed to detect cell proliferation based on cell confluence. Apoptosis was measured based on green fluorescent staining of apoptotic cells using the IncuCyte® Caspase-3/7 green apoptosis assay reagent (Essen Bioscience 4440).
According to assay method C cells were treated with compound (A) as component a) and RMC4550, AMG510, or Trametinib as component b) or combinations of component a) and either one of component b) at the indicated concentrations. Additionally, during the first treatment, the IncuCyte® Caspase-3/7 green apoptosis assay reagent was added to measure apoptosis for the first 72 hours. […] Confluence (left) and Caspase 3/7 activity was measured by the IncuCyte®. […]

SMILES: CCCS(=O)(=O)Nc1c(F)ccc(C(=O)c2c[nH]c3ncc(-c4cnc(C5CC5)nc4)cc23)c1F [compound (A), N-(3-(5-(2-cyclopropyl-pyrimidin-5-yl)-1H-pyrrolo[2,3-b]pyridine-3-carbonyl)-2,6-difluorophenyl)-propane-1-sulfonamide]
- synergy with MEK, ERK, KRAS and SHP2 inhibition, overall conclusion ([1]; compound (A) combined with MEK, ERK, KRAS or SHP2 inhibitor, all obtained results): strongly synergizes
- synergy with ERK inhibition in colony formation matrix ([1]; compound (A) combined with SCH772984, H358, DLD1, HCT 116, 10 days, FIG. 2): Synergizes
- toxicity in colony formation matrix, single drug ([1]; single drug, KRAS mutant cancer cells (H358, H2122, DLD1, HCT 116), fixed and stained after 10 days, FIG. 1): did not show sensitivity
- toxicity compared to the single agent effect of AMG510 ([2]; addition of compound (A) to AMG510, KRAS G12C mutants H358, H2122): strongly increased the toxicity
- synergy with AMG510 in colony formation matrix ([2]; compound (A) combined with AMG510, H358, H2122): strong synergy
- synergy with SHP2 inhibition in colony formation matrix [3]: Synergizes
- cell proliferation (confluence) ([4]; compound (A) in combination with Trametinib, RMC4550 or AMG510, FIG. 5A): Abrogates Cell Proliferations
- synergistic effect of combination (confluence and Caspase 3/7 activity) ([4]; compound (A) with MEK, SHP2 and KRASG12C inhibitors, example 5, FIGS. 5A and 5B): synergistic effect
- apoptosis (Caspase 3/7 activity) [5]: Induces Apoptosis

From US20250228834A1, “PHARMACEUTICAL COMPOSITION FOR THE TREATMENT OF COLON AND LUNG CANCER” (HEPAREGENIX GMBH, priority 2022, published 2025)
